Results from US20200069775A1, “BRAIN OSTEOCALCIN RECEPTOR AND COGNITIVE DISORDERS” (The Trustees of Columbia University in the City of New York, priority 2017, published 2020).
Entries after “also recorded” stand apart in the source; their conditions may differ.

Columns and labels:
Type in all cases: in vivo, mouse
[1] = tested on: Osteocalcin−/− mice; test: Intracerebro-ventricular (ICV) infusion in Osteocalcin−/− mice, behavioral tests
Method: Osteocalcin−/−, Gprc6a−/−, Osteocalcin-mCherry, and Osteocalcin foxed mice have been previously described (Ducy et al., 1996, Nature 382:448-452; Oury et al., 2011, Cell 144:796-809). Mouse genotypes were determined by PCR. For all experiments, controls were littermate female WT, Cre-expressing, or flox/flox. All mice were maintained on a pure 129-Sv genetic background except for the inducible deletion Osteocalcin model (mix background: 25% C57/BL6 and 75% 129sv). For inducible gene deletion mice, tamoxifen was prepared in corn oil and injected intraperitoneally (IP) (1 mg/20g of body weight) over one week. For osteocalcin delivery to pregnant mice, IP injections (240 ng/day) were performed as soon as a plug was present daily until delivery (E0.5-E18.5). For osteocalcin or leptin infusion in adult Osteocalcin−/− or ob/ob mice, pumps (Alzet micro-osmotic pump, Model 1002) delivering osteocalcin (300 ng/hr), leptin (50 ng/hr), or vehicle were surgically installed subcutaneously in the backs of 3-month old mice. […] Leptin and osteocalcin content in sera and tissues were determined by ELISA.
Tail suspension testing was performed as previously described (Mayorga et al., 2001, J. Pharmacology Exper. Therapeutics 298:1101-1107; Stem et al., 1985, Psychopharmacology 85:367-370). […] The parameter recorded was the number of seconds spent immobile. Mice were scored by a highly trained observer, over a 5 min period, blind to the genotype of the mice.
Anxiety and locomotor activity of mice were measured using the open field test (David et al., 2009, Neuron 62:479-493). […] Mice were monitored throughout each test session by video tracking and analyzed using Matlab software. […] The overall motor activity was quantified as the total distance travelled. The anxiety was quantified measuring the number of rearings and the time and distance spent in the center versus periphery of the open field chamber (in %).
Each mouse was allowed to explore the apparatus for 5 min. Global activity was assessed by measuring the number of entries […] (David et al, 2009, Neuron 62:479-493). […]

[2] = tested on: WT mice; test: Contextual Fear Conditioning after acute hippocampal injection
Method: FIG. 11. CREB activation by osteocalcin is functionally relevant. Contextual fear conditioning in 3.5 month old mice injected acutely with 10 ng recombinant uncarboxylated osteocalcin 24 hours prior to context exposure. 3 shocks of 0.55 mA were delivered to mice 1 min apart.
To determine whether these acute injections and corresponding activation of the CREB pathway are functionally relevant, Contextual Fear Conditioning (CFC), a hippocampus dependent task that assesses long term memory, was performed. Mice were injected acutely in both hemispheres with either PBS or 10 ng recombinant uncarboxylated osteocalcin.

[3] = tested on: Osteocalcin−/− embryos and adult offspring of Osteocalcin−/− mothers; test: Osteocalcin injections in pregnant Osteocalcin−/− mothers, analysis of offspring
Method: Osteocalcin−/−, Gprc6a−/−, Osteocalcin-mCherry, and Osteocalcin foxed mice have been previously described (Ducy et al., 1996, Nature 382:448-452; Oury et al., 2011, Cell 144:796-809). Mouse genotypes were determined by PCR. For all experiments, controls were littermate female WT, Cre-expressing, or flox/flox. All mice were maintained on a pure 129-Sv genetic background except for the inducible deletion Osteocalcin model (mix background: 25% C57/BL6 and 75% 129sv). For inducible gene deletion mice, tamoxifen was prepared in corn oil and injected intraperitoneally (IP) (1 mg/20g of body weight) over one week. For osteocalcin delivery to pregnant mice, IP injections (240 ng/day) were performed as soon as a plug was present daily until delivery (E0.5-E18.5). For osteocalcin or leptin infusion in adult Osteocalcin−/− or ob/ob mice, pumps (Alzet micro-osmotic pump, Model 1002) delivering osteocalcin (300 ng/hr), leptin (50 ng/hr), or vehicle were surgically installed subcutaneously in the backs of 3-month old mice. For the postnatal rescue of cognitive functions in Osteocalcin−/− mice, osteocalcin (10 ng/hour) or vehicle were delivered intrasubventricularly (icv) as previously described (Ducy et al., 2000, Cell 100:197-207). Leptin and osteocalcin content in sera and tissues were determined by ELISA.
Cresyl violet staining to visualize brain morphology was carried out by incubating 20 μm cryosections defatted with 1:1 chloroform:ethanol in cresyl violet acetate (1 g/L) overnight. The stain was differentiated using ethanol and xylene and mounted using DPX mounting medium for histology (Sigma).
To assess apoptosis in WT and Osteocalcin−/− brains, 20 μm cryostat sections were processed using theAPOPTAG® Fluorescein Direct In Situ Apoptosis Detection Kit (Millipore) according to manufacturer's protocol. Images were obtained using Leica DM 4000B, and Image J was used to quantify cell number and intensity of staining.
For western blotting, frozen hippocampi from E18.5 embryos were lysed and homogenized in 250 μl tissue lysis buffer (25 mM Tris HCl 7.5; 100 mM NaF; 10 mM Na4P2O7; 10 mmM EDTA; 1% NP 40). Samples were pooled together in threes by genotype to reduce variability. Proteins were transferred to nitrocellulose membranes and blocked with TBST-5% milk prior to overnight incubation with primary antibody in TBST-5% BSA. HRP-coupled secondary antibodies and ECL were used to visualize the signal.
To further evaluate the importance of maternal osteocalcin for the acquisition of spatial learning and memory in adult offspring, pregnant Osteocalcin^−/− mothers from E0.5 to E18.5 were treated with injections, once a day, of osteocalcin (240 ng/day). Osteocalcin was never injected in these females or their pups after delivery. […] Likewise, the number of apoptotic cells was reduced and the number of NeuN positive cells was increased compared to Osteocalcin^−/− embryos originating from Osteocalcin^−/− mothers that were not injected (FIG. 7I-J).

[4] = tested on: CREB phosphorylation in the hippocampus; test: Stereotactic injection into hippocampus, pCREB and PKA immunofluorescence; settings: 16 h post injection
From the text: The resulting effects on animal behavior of direct recombinant uncarboxylated osteocalcin delivery raise the question of the molecular mechanism of action of osteocalcin in the brain. Given that osteocalcin acts through a G-protein coupled receptor pathway in other tissues, e.g., pancreas and testis, the phosphorylated CREB levels in the hippocampi of Ocn−/− and WT animals was checked. […] The hippocampus is essential for optimal spatial learning and memory in rodents. It was then asked whether the acute stereotactic injection of 10 ng of recombinant uncarboxylated osteocalcin directly into the hippocampus of WT animals would affect pCREB levels.

[5] = Osteocalcin−/− embryos, injected vs not injected Osteocalcin−/− mothers
[6] = mothers injected 240 ng/day once a day E0.5 to E18.5

Substance: osteocalcin: Recombinant osteocalcin bacterially produced, cleaved from the GST subunit; completely undercarboxylated at all three sites; full-length mouse osteocalcin (YLGASVPSPDPLEPTREQCELNPACDELSDQYGLKTAYKRIYGITI)
- anxiety and depression features ([1]; Osteocalcin−/− mice, ICV 10 ng/hour, week-long treatment): corrected the anxiety and depression features
- leakage of centrally delivered hormone into the general circulation (osteocalcin in blood) ([1]; Osteocalcin−/− mice, ICV infusion): no leakage
- defects in anxiety, depression, learning, and memory ([1]; direct administration to the brains of adult Osteocalcin−/− mice): rescued defects in anxiety, depression, learning, and memory
- % freezing on Day 1 (CFC) ([2]; 10 ng injected 24 hours prior to context exposure): % freezing was the same for both groups
- freezing behavior 24 hours after the initial shocks (CFC) ([2]; 10 ng injected acutely in both hemispheres, listed as recombinant uncarboxylated osteocalcin): increased freezing behavior as compared to controls; also recorded: increased freezing along with hyperexcitability
- Caspase-3 cleaved protein level in the hippocampus (Western blot) ([3]; Osteocalcin−/− E18.5 embryos, injected vs not injected mothers): decrease in Caspase-3 cleaved protein level
- number of NeuN positive cells [3, 5]: increased
- number of apoptotic cells [3, 5]: reduced
- number of apoptotic cells ([3]; Osteocalcin−/− embryos, injected vs not injected Osteocalcin−/− mothers, listed as Uncarboxylated osteocalcin): prevent this neuronal apoptosis
- thickness defect in the CA3 and CA4 regions of the hippocampus ([3]; adult Osteocalcin−/− originating from Osteocalcin−/− mothers): rescue of the thickness defect
- cerebral ventricle enlargement (cresyl violet) ([3]; brains of E18.5 Osteocalcin−/− embryos, injected mothers): rescue of the cerebral ventricle enlargement
- anxiety or depression phenotypes of Osteocalcin−/− offspring [3, 6]: did not have any beneficial effect
- deficit in learning and memory of Osteocalcin−/− offspring [3, 6]: rescued over two third of their deficit
- pCREB staining ([4]; 10 ng into hippocampus of WT animals, vs PBS hemisphere): pCREB staining was increased
- PKA staining ([4]; 10 ng into hippocampus, injected hemisphere): widespread and dramatic increase in PKA staining
